pIC50: −log10 of the molar value. Counter-ions that a name gives are not always drawn.
Key:
[1] = molecular target: T1, BTK (Homo sapiens, UniProt Q06187); assay: Cell Degradation: BTK degradation in TMD-8 cells, HTRF assay; assay type: cell-based; conditions: 6 h treatment, IC50 (DC50) of BTK degradation
T1 construct: High control=Cell group with added DMSO and without compound, indicating microplate readings without BTK degradation; endogenous in cells; host or cells: TMD-8 cells
Experimental: TMD-8 cells are treated with compounds in 0.2% DMSO, dilution is done according to the following protocol: (1) make 500× stock solution in DMSO from 1 mM by 6-fold dilution, total 8 doses were included; (2) make 2× solution in cell culture medium by transferring 0.5 μl 500× stock solution into 125 μl medium; (3) 15 μl of 2× solution is added to cells and incubate for 6 h.
After 6 h treatment, add […] 4×lysis buffer to each well; seal the plate and incubate 30 min at room temperature on a plate shaker; Once the cells are lysed, 16 μL of cell lysate are transferred to a PE 384-well HTRF detection plate; 4 μL of pre-mixed HTRF antibodies are added to each well; Cover the plate with a plate sealer, spin 1000 rpm for 1 min, Incubate overnight at room temperature; Read on BMG PheraStar with HTRF protocol (337 nm-665 nm-620 nm).
The inhibition (degradation) percentage of the compound was calculated by the following equation: Inhibition percentage of Compound=100-100× (Signal-low control)/(High control-low control), wherein signal=each test compound group
Dmax is the maximum percentage of inhibition (degradation).
The IC50 (DC50) value of a compound can be obtained by fitting the following equation
Y=Bottom+(TOP-Bottom)/(1+((IC50/X)^hillslope))
(§1) Wherein, X and Y are known values, and IC50, Hillslope, Top and Bottom are the parameters obtained by fitting with software. Y is the inhibition percentage (calculated from the equation), X is the concentration of the compound; IC50 is the concentration of the compound when the 50% inhibition is reached. The smaller the IC50 value is, the stronger the inhibitory ability of the compound is. Vice versa, the higher the IC50 value is, the weaker the ability the inhibitory ability of the compound is; Hillslope represents the slope of the fitted curve, generally around 1 *; Bottom represents the minimum value of the curve obtained by data fitting, which is generally 0%±20%; Top represents the maximum value of the curve obtained by data fitting, which is generally 100%±20%. The experimental data were fitted by calculating and analyzing with Dotmatics data analysis software.

[2] = system: HEK-293 cells; assay: HEK-293 Cytotoxicity Assay (CellTiter-Glo); assay type: cell-based; conditions: Homo sapiens, HEK293, 72 h incubation, CellTiter-Glo luminescence
Experimental: HEK-293 Cytotoxicity Assay
HEK-293 cells are treated with compounds diluted in 0.2% DMSO, dilution is done according to the following protocol: (1) make 500× stock solution in DMSO from 5 mM by 4-fold dilution, total 8 doses were included; (2) make 2× solution in cell culture medium by transferring 0.5 ul 500× stock solution into 125 ul medium; (3) 50 ul of 2× solution is added to cells and incubate for 72 h.
Add 25 μl of the CellTiter-Glo®Reagent [I (Promega)—Cat No. G7572] to each well in the 96-well plate. Mix contents for 2 minutes on an orbital shaker to induce cell lysis. Allow the plate to incubate at room temperature for 10 minutes to stabilize luminescent signal. Record luminescence on BMG PheraStar with luminescence protocol.
as §1, with “The IC50 value of a compound can be obtained by fitting the following equation. Y=Bottom+(TOP−Bottom)/(1+((IC50/X)^hillslope)) Wherein,” for “Wherein,”, “1*;” for “1 *;”

T1 sequence (Q06187 whole entry): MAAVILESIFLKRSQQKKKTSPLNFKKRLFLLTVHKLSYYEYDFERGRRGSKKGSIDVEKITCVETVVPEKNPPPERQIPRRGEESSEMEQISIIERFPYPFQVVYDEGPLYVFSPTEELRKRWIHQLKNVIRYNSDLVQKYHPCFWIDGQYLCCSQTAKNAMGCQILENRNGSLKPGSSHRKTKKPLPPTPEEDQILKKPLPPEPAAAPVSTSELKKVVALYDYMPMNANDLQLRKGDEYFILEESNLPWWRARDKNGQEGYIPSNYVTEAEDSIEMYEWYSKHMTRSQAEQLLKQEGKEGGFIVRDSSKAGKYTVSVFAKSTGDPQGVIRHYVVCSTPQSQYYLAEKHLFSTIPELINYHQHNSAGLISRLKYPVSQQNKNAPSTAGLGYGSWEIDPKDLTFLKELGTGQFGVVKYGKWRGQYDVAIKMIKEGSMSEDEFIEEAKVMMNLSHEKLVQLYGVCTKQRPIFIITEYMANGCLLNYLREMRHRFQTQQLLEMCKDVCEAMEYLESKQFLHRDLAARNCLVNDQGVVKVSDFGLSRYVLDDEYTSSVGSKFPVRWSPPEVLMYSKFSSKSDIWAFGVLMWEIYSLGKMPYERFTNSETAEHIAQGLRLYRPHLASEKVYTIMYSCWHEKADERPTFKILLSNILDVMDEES

SMILES | DC50 [1] [nM] | pIC50 [2]
Cc1cc(-c2ncnc3[nH]c(-c4ccc(N5CCN(CCC6CCN(c7ccc(N8CCC(=O)NC8=O)c(Cl)c7)CC6)CC5)nc4)cc23)ccc1[C@@H](C)NC(=O)c1nc(C(C)(C)C)no1 [Example 26, (R)-3-(tert-butyl)-N-(1-(4-(6-(6-(4-(2-(1-(3-chloro-4-(2,4-dioxotetrahydropyrimidin-1(2H)-yl)phenyl)piperidin-4-yl)ethyl)piperazin-1-yl)pyridin-3-yl)-7H-pyrrolo[2,3-d]pyrimidin-4-yl)-2-methylphenyl)ethyl)-1,2,4-oxadiazole-5-carboxamide] | 4.7 | < 5.00
COc1ccc(C(=O)N2CCC(CN3CCC(Oc4ccc(-c5cc6c(-c7ccc(CNC(=O)c8nc(C(C)(C)C)no8)c(C)c7)ncnc6[nH]5)cc4)CC3)CC2)cc1N1CCC(=O)NC1=O [Example 27, 3-(tert-butyl)-N-(4-(6-(4-((1-((1-(3-(2,4-dioxotetrahydropyrimidin-1(2H)-yl)-4-methoxybenzoyl)piperidin-4-yl)methyl)piperidin-4-yl)oxy)phenyl)-7H-pyrrolo[2,3-d]pyrimidin-4-yl)-2-methylbenzyl)-1,2,4-oxadiazole-5-carboxamide] | 1.9 | < 5.00
Cc1cc(-c2ncnc3[nH]c(-c4ccc(N5CCN(CC6CCN(c7ccc(N8CCC(=O)NC8=O)cc7)CC6)CC5)cc4)cc23)ccc1CNC(=O)c1noc(C(C)(C)C)n1 [Example 30, 5-(tert-butyl)-N-(4-(6-(4-(4-((1-(4-(2,4-dioxotetrahydropyrimidin-1(2H)-yl)phenyl)piperidin-4-yl)methyl)piperazin-1-yl)phenyl)-7H-pyrrolo[2,3-d]pyrimidin-4-yl)-2-methylbenzyl)-1,2,4-oxadiazole-3-carboxamide] | 1.7 | < 5.00
C[C@@H](NC(=O)c1noc(C(C)(C)C)n1)c1ccc(-c2ncnc3[nH]c(-c4ccc(N5CCN(CC6CCN(c7ccc(N8CCC(=O)NC8=O)cc7)CC6)CC5)cc4)cc23)cc1F [Example 31, (R)-5-(tert-butyl)-N-(1-(4-(6-(4-(4-((1-(4-(2,4-dioxotetrahydropyrimidin-1(2H)-yl)phenyl)piperidin-4-yl)methyl)piperazin-1-yl)phenyl)-7H-pyrrolo[2,3-d]pyrimidin-4-yl)-2-fluorophenyl)ethyl)-1,2,4-oxadiazole-3-carboxamide] | 1.5 | < 5.00
CC(C)(C)c1noc(C(=O)NCc2ccc(-c3ncnc4[nH]c(-c5ccc(N6CCN(CC7CCN(c8ccc(N9CCC(=O)NC9=O)cc8)CC7)CC6)cc5)cc34)cc2F)n1 [Example 32, 3-(tert-butyl)-N-(4-(6-(4-(4-((1-(4-(2,4-dioxotetrahydropyrimidin-1(2H)-yl)phenyl)piperidin-4-yl)methyl)piperazin-1-yl)phenyl)-7H-pyrrolo[2,3-d]pyrimidin-4-yl)-2-fluorobenzyl)-1,2,4-oxadiazole-5-carboxamide] | 1.7 | < 5.00
C[C@@H](NC(=O)c1nc(C(C)(C)C)no1)c1ccc(-c2ncnc3[nH]c(-c4ccc(N5CCN(CC6CCN(c7ccc(N8CCC(=O)NC8=O)cc7)CC6)CC5)nc4)cc23)cc1F [Example 33, (R)-3-(tert-butyl)-N-(1-(4-(6-(6-(4-((1-(4-(2,4-dioxotetrahydropyrimidin-1(2H)-yl)phenyl)piperidin-4-yl)methyl)piperazin-1-yl)pyridin-3-yl)-7H-pyrrolo[2,3-d]pyrimidin-4-yl)-2-fluorophenyl)ethyl)-1,2,4-oxadiazole-5-carboxamide] | 1.7 | < 5.00
C[C@@H](NC(=O)c1noc(C(C)(C)C)n1)c1ccc(-c2ncnc3[nH]c(-c4ccc(N5CCN(CC6CCN(c7ccc(N8CCC(=O)NC8=O)cc7)CC6)CC5)nc4)cc23)cc1F [Example 34, (R)-5-(tert-butyl)-N-(1-(4-(6-(6-(4-((1-(4-(2,4-dioxotetrahydropyrimidin-1(2H)-yl)phenyl)piperidin-4-yl)methyl)piperazin-1-yl)pyridin-3-yl)-7H-pyrrolo[2,3-d]pyrimidin-4-yl)-2-fluorophenyl)ethyl)-1,2,4-oxadiazole-3-carboxamide] | 1.2 | < 5.00
Cc1cc(-c2ncnc3[nH]c(-c4ccc(N5CCN(CC6CCN(c7ccc(N8CCC(=O)NC8=O)cc7)CC6)CC5)cc4)cc23)ccc1CNC(=O)c1cn(C(C)(C)C)nn1 [Example 37, 1-(tert-butyl)-N-(4-(6-(4-(4-((1-(4-(2,4-dioxotetrahydropyrimidin-1(2H)-yl)phenyl)piperidin-4-yl)methyl)piperazin-1-yl)phenyl)-7H-pyrrolo[2,3-d]pyrimidin-4-yl)-2-methylbenzyl)-1H-1,2,3-triazole-4-carboxamide] | 1.2 | < 5.00
Cc1cc(-c2ncnc3[nH]c(-c4ccc(N5CCN(CC6CCN(c7ccc(N8CCC(=O)NC8=O)cc7)CC6)CC5)c(F)c4)cc23)ccc1[C@@H](C)NC(=O)c1nc(C(C)(C)C)no1 [Example 38, (R)-3-(tert-butyl)-N-(1-(4-(6-(4-(4-((1-(4-(2,4-dioxotetrahydropyrimidin-1(2H)-yl)phenyl)piperidin-4-yl)methyl)piperazin-1-yl)-3-fluorophenyl)-7H-pyrrolo[2,3-d]pyrimidin-4-yl)-2-methylphenyl)ethyl)-1,2,4-oxadiazole-5-carboxamide, Formate] | 2.1 | < 5.00

Continued, in another order:

DC50 [1] [nM] | SMILES | pIC50 [2]
1.5 | Cc1c(NC(=O)c2ccc(C(C)(C)O)cc2F)cc(F)cc1-c1ncnc2[nH]c(-c3ccc(C4CCN(CC5CCN(c6ccc(N7CCC(=O)NC7=O)cc6)CC5)CC4)cc3)cc12 [Example 28, N-(3-(6-(4-(1-((1-(4-(2,4-dioxotetrahydropyrimidin-1(2H)-yl)phenyl)piperidin-4-yl)methyl)piperidin-4-yl)phenyl)-7H-pyrrolo[2,3-d]pyrimidin-4-yl)-5-fluoro-2-methylphenyl)-2-fluoro-4-(2-hydroxypropan-2-yl)benzamide] | 5.37
10.2 | C=C(C)c1ccc(C(=O)Nc2cc(F)cc(-c3ncnc4[nH]c(-c5ccc(C6CCN(CC7CCN(c8ccc(N9CCC(=O)NC9=O)cc8)CC7)CC6)cc5)cc34)c2C)c(F)c1 [Example 29, N-(3-(6-(4-(1-((1-(4-(2,4-dioxotetrahydropyrimidin-1(2H)-yl)phenyl)piperidin-4-yl)methyl)piperidin-4-yl)phenyl)-7H-pyrrolo[2,3-d]pyrimidin-4-yl)-5-fluoro-2-methylphenyl)-2-fluoro-4-(prop-1-en-2-yl)benzamide] | < 5.00
0.63 | Cc1cc(-c2ncnc3[nH]c(-c4ccc(N5CCN(CC6CCN(c7ccc(N8CCC(=O)NC8=O)cc7)CC6)CC5)cc4)cc23)ccc1CNC(=O)c1cnn(C(C)(C)C)c1 [Example 35, 1-(tert-butyl)-N-(4-(6-(4-(4-((1-(4-(2,4-dioxotetrahydropyrimidin-1(2H)-yl)phenyl)piperidin-4-yl)methyl)piperazin-1-yl)phenyl)-7H-pyrrolo[2,3-d]pyrimidin-4-yl)-2-methylbenzyl)-1H-pyrazole-4-carboxamide] | < 5.00
1.5 | Cc1cc(CNC(=O)c2ccc(C(C)(C)O)cc2F)c(F)cc1-c1ncnc2[nH]c(-c3ccc(C4CCN(CC5CCN(c6ccc(N7CCC(=O)NC7=O)cc6)CC5)CC4)cc3)cc12 [Example 36, N-(4-(6-(4-(1-((1-(4-(2,4-dioxotetrahydropyrimidin-1(2H)-yl)phenyl)piperidin-4-yl)methyl)piperidin-4-yl)phenyl)-7H-pyrrolo[2,3-d]pyrimidin-4-yl)-2-fluoro-5-methylbenzyl)-2-fluoro-4-(2-hydroxypropan-2-yl)benzamide] | < 5.00

Source: patent publication US20230167118A1, “DEGRADATION OF BRUTON'S TYROSINE KINASE (BTK) BY CONJUGATION OF BTK INIDBITORS WITH E3 LIGASE LIGAND AND METHODS OF USE” (BEIGENE, LTD., priority 2020, published 2023)
